Patent US5086054A, “Novel arylcycloalkanepolyalkylamines” (SRI International, priority 1990, dated 1992)
“Also recorded” adds a separate entry of the source. Read-outs that look alike come from different tables or passages of the source.

How the values were obtained:
SIGMA RECEPTOR = target: T1, SIGMA RECEPTOR (Cavia porcellus, UniProt Q60492); experiment: Sigma receptor binding assay ([3H]-d-SKF-10,047 displacement, brain membranes); set-up: species or system guinea-pig (male Hartley)
T1 construct: Two milliter aliquots of the brain membrane preparation, containing 1.7 mg of protein; tissue Pel-Freeze (Rogers, Arkansas); host or cells: guinea-pig brains plus cerebella, membranes
Procedure: (§1) This example illustrates testing of compounds in receptor binding assays.
(§2) Frozen brains from male Hartley guinea-pigs were obtained from Pel-Freeze (Rogers, Arkansas).
(§3) The brains plus cerebella were homogenized in 10 volumes (v/w) of 0.1M, pH 7.4, ice-cold Tris-HCl buffer with a Brinkmann polytron at setting 4 for 20 seconds. The homogenates were centrifuged at 20,000×g for 20 minutes at 4° C. The pellets were suspended in 10 volumes of ice-cold water and, after sitting on ice for 10 minutes, were centrifuged 30 minutes at 20,000×g at 4° C. The resulting pellets were resuspended in the above Tris buffer in ratio 1:100 (w/v) for σ receptor assays or in 5 mM Tris-HCl having pH 7.4, for PCP receptor assays. The final suspension was homogenized with a dounce glass-glass tissue grinder Wheaton "200", at small clearance (B), with three strokes before use. Two milliter aliquots of the brain membrane preparation, containing 1.7 mg of protein, were incubated in quadruplicate for one hour at 23° C. with competing mixture of ligand and radioligand. For σ receptors, [^3 H]-d-SKF-10,047, 2 nM was used. For PCP receptors, [^3 H] TCP [^3 H]-1-[1-(2-thienyl)cyclohexyl]piperidine), 1 nM was used. The nonspecific bindings were defined by 0.1 mM d-SKF-10,047 and 0.1 mM phencyclidine respectively for σ and PCP receptors. After incubation, free ligand was separated from bound ligand by rapid filtration through Whatman GF/C filters. The filters had been soaked before use in isoamyl alcohol-saturated water to prevent nonspecific [^3 H]-d-SKF-10,047 binding to the filter. In the PCP receptor assay, the filter was soaked in 0.5% polyethylenimine to reduce the filter binding of [^3 H]-TCP. After filtration, the trapped tissue was washed three times with 4 ml aliquots of 0.1 M ice-cold Tris buffer at pH 7.4 for σ receptors and 5 mM, ice-cold Tris buffer pH 7.4 for PCP receptors. The filters were transferred to 5 ml of liquid scintillation fluid and the retained radioactivity was measured by liquid scintillation spectrometry.

PCP RECEPTOR = experiment: PCP receptor binding assay ([3H]-TCP displacement, brain membranes); set-up: species or system guinea-pig (male Hartley)
Procedure: as §1, §2, §3
(§4) Programs in Biomed. 17:107 (1983)].

DOPAMINE D2 = target: T2, DOPAMINE D2 (Cavia porcellus, UniProt H0VE83); experiment: Dopamine D2 receptor binding ([3H]-spiroperidol); set-up: species or system guinea-pig
T2 construct: printed as cerebral cortical tissue, [3H]spiroperidol, haloperidol blank
Source text: (§5) This example illustrates the testing of compounds of this invention in dopamine D2, 5-HT2, muscarinic acetylcholine, α1 -adrenoceptor and β-adrenoceptor receptor assays. The receptor assay methods are described in Eur. J. Pharmacol., 155:345 (1988) except that in the β-adrenoceptor assay, [^125 I]-pindolol was used instead of [^3 H] dihydroalprenolol.
(§6) In this study, guinea-pig brains were used for binding studies. Homogenization and centrifugation procedures for preparation of brain membranes for each receptor assay were the same as described in Example 4 for the σ and PCP receptors. However, brain regions, tissue contents, and buffers may differ depending on the assay. Conditions of binding assays for various receptors were as follows:
For dopamine D2 assay, 3 H-spiroperidol (0.15 nM) was incubated in a 2 ml assay (50 mM Tris-HCl, pH 7.4) for 2 hours at 23° C. with membranes from 12 mg of cerebral cortical tissue.
(§7) Filtration and washing conditions were the same as described above for the σ receptor assay. Nonspecific binding for each receptor was defined by the inclusion of 1 μM haloperidol for dopamine D2, 1 μM haloperidol for 5-HT2, 10 μM scopolamine for muscarinic acetylcholine, 10 μM prazosin for α1 -adrenoceptor, and 0.2 μM 1-propranolol for β-adrenoceptor. Retained radioactivity was measured by liquid scintillation spectrometry except for ^125 I-pindolol which was measured by the LKB gamma counter.
as §4

MUSCARINIC ACETYLCHOLINE = type: binding, guinea-pig
Source text: as §5, §6
For muscarinic acetylcholine assay, […]) [^3 H]-quinuclidinyl benzylate ([^3 H]-QNB) was incubated in a 2 ml assay (50 mM Tris-HCl, pH 7.4) for 2 hours at 23° C. with membranes from 2 mg of whole brain minus cerebellum.
as §7, §4

5-HT2 = 5-HT2 (Cavia porcellus, UniProt A0A286Y537); experiment: 5-HT2 receptor binding; set-up: species or system guinea-pig
Source text: as §5, §6, §7, §4

α1 -ADRENOCEPTOR = experiment: α1-adrenoceptor binding ([3H]-prazosin); set-up: species or system guinea-pig; conditions: Table 4; IC50 and nM only stated in text; read-out: α1 -ADRENOCEPTOR
Source text: as §5, §6
For α1 -adrenoceptor assay, [^3 H]-prazosin (0.4 nM) was incubated in a 1 ml assay (50 mM Tris-HCl, pH 7.4) for 1 hour at 23° C. with membranes from 1 mg of whole brain minus cerebellum.
as §7, §4

β-ADRENOCEPTOR = experiment: β-adrenoceptor binding ([125I]-pindolol); set-up: species or system guinea-pig; conditions: Table 4; IC50 and nM only stated in text; read-out: β-ADRENOCEPTOR
Source text: as §5, §6
For β-adrenoceptor, [^125 I]-pindolol (0.05 nM) was incubated in a 1 ml assay (50 mM Tris-HCl, pH 7.4) for 1 hr at 23° C. with membranes from 1 mg of whole brain minus cerebellum.
as §7, §4

σ receptors = conditions: literature; cited from earlier work
σ binding sites = conditions: microinjections into red nucleus and substantia nigra; cited from earlier work
dopamine D-2 receptor = conditions: literature; cited from earlier work
[1] = clinical trials; cited from earlier work

T1 sequence (Q60492 whole entry): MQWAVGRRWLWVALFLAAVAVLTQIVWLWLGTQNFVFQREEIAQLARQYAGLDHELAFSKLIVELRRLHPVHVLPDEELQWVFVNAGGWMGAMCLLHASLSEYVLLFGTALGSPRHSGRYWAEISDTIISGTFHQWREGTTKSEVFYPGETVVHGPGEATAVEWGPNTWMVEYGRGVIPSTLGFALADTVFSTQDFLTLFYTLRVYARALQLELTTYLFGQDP
Sequence of 5-HT2 (A0A286Y537 1-470): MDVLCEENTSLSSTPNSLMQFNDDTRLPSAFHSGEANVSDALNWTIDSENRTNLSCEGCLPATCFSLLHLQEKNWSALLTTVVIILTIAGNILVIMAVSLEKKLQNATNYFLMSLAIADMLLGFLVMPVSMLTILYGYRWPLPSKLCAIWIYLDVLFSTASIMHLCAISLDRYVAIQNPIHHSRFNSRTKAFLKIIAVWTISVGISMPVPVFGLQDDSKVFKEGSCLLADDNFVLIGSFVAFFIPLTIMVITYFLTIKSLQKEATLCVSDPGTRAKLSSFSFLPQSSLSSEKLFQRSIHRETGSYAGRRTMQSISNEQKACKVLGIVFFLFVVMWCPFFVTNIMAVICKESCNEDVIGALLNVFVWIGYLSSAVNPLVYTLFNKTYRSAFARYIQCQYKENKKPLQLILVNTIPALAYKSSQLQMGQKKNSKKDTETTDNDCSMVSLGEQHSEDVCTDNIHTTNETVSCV
T2 sequence (H0VE83 entry or part of it): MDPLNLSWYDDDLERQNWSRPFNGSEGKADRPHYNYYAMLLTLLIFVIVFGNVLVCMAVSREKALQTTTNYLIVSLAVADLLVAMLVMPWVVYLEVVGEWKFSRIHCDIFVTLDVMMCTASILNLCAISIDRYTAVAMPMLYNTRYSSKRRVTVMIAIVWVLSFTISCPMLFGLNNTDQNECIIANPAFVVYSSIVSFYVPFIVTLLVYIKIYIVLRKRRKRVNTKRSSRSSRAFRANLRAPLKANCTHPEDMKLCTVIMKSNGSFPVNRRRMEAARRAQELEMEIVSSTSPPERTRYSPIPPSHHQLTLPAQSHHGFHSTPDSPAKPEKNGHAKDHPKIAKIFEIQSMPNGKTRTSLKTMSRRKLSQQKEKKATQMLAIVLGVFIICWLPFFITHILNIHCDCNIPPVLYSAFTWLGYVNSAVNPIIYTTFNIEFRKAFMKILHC

SMILES: CN(C)CCOC(=O)C1(c2ccccc2)CCCCC1.Cl [Compound 19, 2-(Dimethylamino)ethyl 1-phenylcyclohexane-1-carboxylate hydrochloride]
- SIGMA RECEPTOR SLOPE (SIGMA RECEPTOR; Table 1, slope of dose response curve): 0.54 ± 0.02
- IC50 (SIGMA RECEPTOR; Table 4, IC50 and nM only stated in text, read-out: SIGMA): 9.2 ± 0.8 nM
- potency at σ receptors (in words) (SIGMA RECEPTOR; hydrochloride): σ receptor potency increased; also recorded: very potent in the σ assay; also recorded: very high
- IC50 (SIGMA RECEPTOR; read-out: IC50 at σ receptors): < 100 nM
- IC50 (PCP RECEPTOR; Table 1, mean ± error (n), read-out: PCP RECEPTOR IC50): 21700 nM
- IC50 (PCP RECEPTOR; Table 4, IC50 and nM only stated in text, read-out: PCP): 21700 nM
- potency at PCP receptors (in words) (PCP RECEPTOR; hydrochloride): inactive in the PCP assay; also recorded: very weak or inactive in the PCP assay; also recorded: negligible; also recorded: low potency at PCP receptors
- potency at dopamine D-2 receptors (in words) (DOPAMINE D2): moderate potencies at dopamine D-2 and 5-HT2 receptors
- potency at muscarinic acetylcholine receptors (in words) (MUSCARINIC ACETYLCHOLINE): quite potent at muscarinic acetylcholine receptors
- IC50 (MUSCARINIC ACETYLCHOLINE; Table 4, IC50 and nM only stated in text, read-out: MUSCARINIC ACETYLCHOLINE): 750 ± 36 nM
- IC50 (MUSCARINIC ACETYLCHOLINE; read-out: potency (IC50) at muscarinic acetylcholine receptor): 750 nM
- potency at 5-HT2 receptors (in words) (5-HT2): moderate potencies at dopamine D-2 and 5-HT2 receptors
- IC50 (5-HT2; Table 4, IC50 and nM only stated in text, read-out: 5-HT2): 1410 nM
- IC50 (α1 -ADRENOCEPTOR): 29000 nM
- IC50 (β-ADRENOCEPTOR): 85700 nM

SMILES: Cc1ccccc1NC(=N)Nc1ccccc1C [DTG, 1,3-di-o-tolylguanidine]
- affinity / binding at σ receptors (in words) (σ receptors): bind to σ receptors
- contralateral circling behavior (σ binding sites): produce vigorous contralateral circling behavior

SMILES: O=C(CCCN1CCC(O)(c2ccc(Cl)cc2)CC1)c1ccc(F)cc1 [haloperidol, 4-[4-(p-chlorophenyl)-4-hydroxypiperidino]-4'-fluorobutyrophenone]
- affinity / binding at σ receptors (in words) (σ receptors): high affinity for the σ site; also recorded: bind to σ receptors
- dopamine D-2 receptor antagonism (in words) (dopamine D-2 receptor): potent dopamine D-2 receptor antagonist

SMILES: CCN1CCC[C@H]1CNC(=O)c1c(OC)ccc(Br)c1OC [remoxipride]
- affinity / binding at σ receptors (in words) (σ receptors): potent and selective σ receptor ligands
- clinical antipsychotic effects [1]: display clinical antipsychotic effects
